The values that follow come from US6437146B1, “Oxazole compounds as prostaglandin e2 agonists or antagonists” (Fujisawa Pharmaceutical Co., Ltd., priority 1998, dated 2002).

As usually defined, the inhibition is the change of the read-out against control, counted positive when it falls. Lower therefore signals little suppression.

Assay [1] addresses T1, prostanoide receptor subtype (human EP4) (Homo sapiens, UniProt P35408).
T1 construct: expressed in transfected cells; host or cells: COS-7 cells (membrane fraction)
Briefly: Binding assay using expression of prostanoide receptor subtype ([3H]-PGE2, membrane fraction of transfected COS-7 cells). The conditions noted are these: test compound 1.0 × 10^−7M; [3H]-PGE2 binding, COS-7 membrane, human EP4, 1 hour at 30° C. The protocol: Binding Assay Using Expression of Prostanoide Receptor Subtype
The membrane fraction was prepared using COS-7 cells transfected prostanoide receptor subtype (human EP4).
The standard assay mixture contained membrane fraction, [^3H]-PGE2 in final volume of 0.25 ml was incubated for 1 hour at 30° C. The reaction was terminated by that the mixture was rapidly filtered through a glass filter (GF/B). Then the filter was washed by 4ml of ice-cold buffer at two times. The radioactivity associated with the filter was measured by liquid scintillation counting.
In the experiment for competition of specific [^3H]-PGE2 was added at a concentration of 10 μM. The following buffer was used in all reactions.
Buffer: 20 mM Mes (pH 6.0), 1 mM EDTA, 10 mM MgCl2

For assay [2], the system named is Mesangial Proliferative Glomerulonephritis Model. The assay is described as follows: Mesangial proliferative glomerulonephritis model (OX-7 mAb i.v.), urinary protein. In kind it is in vivo. The conditions noted are these: 24 h urine 1 day after OX-7, female Wistar rats, Normal 40.8 ± 2.3, Control 127.9 ± 12.6. The protocol:
Methods of Mesangial Proliferative Glomerulonephritis Model
Female Wistar rats, 6 weeks old were purchased from SLC (Shizuoka, Japan). Glomerulosclerosis model was produced by intravenous injections (i.v.) of the monoclonal antibody (mAb), MRC OX-7 (Dainippon Co. Ltd., Osaka, Japan). The 8 weeks old rats were divided into 4 groups (10 rats/group). Group 1 was injected saline instead of OX-7 as a normal group and treated with vehicle (0.5% methylcellulose solution) only. Group 2 was also treated with the vehicle only after the injection of 1 mg/kg OX-7 as a control group. Group 3 and Group 4 were treated with N-benzylsulfonyl-3-{[(1S)-2-(4,5-diphenyloxazol-2-yl)-2-cyclohexen-1-yl]methyl}benzamide (Example 2-75), as shown in the following Table. The compound was orally given every day from 5 days before to one day after i.v. administration of the antibody. Urine was collected for 24 hours from the rats in metabolic cages 1 day after injection of OX-7 and the amount of protein in each sample was determined by the biuret method using bovine serum albumine as the standard. All the rats were sacrificed 2 days after injection of OX-7. Blood biochemical analysis was carried out. [drawing 11]

A value given as a limit tells only on which side of the number the result lay.

T1 sequence (P35408 whole entry): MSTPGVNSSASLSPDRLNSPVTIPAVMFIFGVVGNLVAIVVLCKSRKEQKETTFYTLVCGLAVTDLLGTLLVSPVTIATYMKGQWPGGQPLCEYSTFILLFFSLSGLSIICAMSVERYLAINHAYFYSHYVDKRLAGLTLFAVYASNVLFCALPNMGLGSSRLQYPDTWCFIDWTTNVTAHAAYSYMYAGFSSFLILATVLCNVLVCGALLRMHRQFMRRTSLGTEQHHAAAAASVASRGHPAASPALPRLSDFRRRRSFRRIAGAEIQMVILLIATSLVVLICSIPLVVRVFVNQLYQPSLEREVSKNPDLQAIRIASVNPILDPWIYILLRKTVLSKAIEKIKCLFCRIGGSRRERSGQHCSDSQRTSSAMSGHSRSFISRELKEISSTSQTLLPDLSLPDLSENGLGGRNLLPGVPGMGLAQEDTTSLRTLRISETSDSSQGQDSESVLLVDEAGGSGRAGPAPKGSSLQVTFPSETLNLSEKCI

On to `O=C(NS(=O)(=O)Cc1ccccc1)c1cccc(C[C@@H]2CCCC=C2c2nc(-c3ccccc3)c(-c3ccccc3)o2)c1` [Example 2-75, N-benzylsulfonyl-3-{[(1S)-2-(4,5-diphenyloxazol-2-yl)-2-cyclohexen-1-yl]methyl}benzamide], for which the inhibition at 0.1 µM in assay [1] is no less than 80%. Besides, the “Urinary Protein” value in assay [2] (1 mg/kg orally every day from 5 days before to one day after OX-7) was determined as 98.2 ± 20.9 mg/day; in assay [2] (10 mg/kg orally every day from 5 days before to one day after OX-7) it was 66.4 ± 6.9 mg/day.
`O=C(NCC(O)c1ccccc1)c1cccc(C[C@@H]2CCC[C@H]2c2nc(-c3ccccc3)c(-c3ccccc3)o2)c1` (stereo partly drawn) [Example 1-47, N-[(2-hydroxy-2-phenyl)ethyl]-3-{[(1S,2R)-2-(4,5-diphenyloxazol-2-yl)-1-cyclopentyl]methyl}benzamide]: the “Inhibition (%)” value in assay [1] is “≧80%”.
`O=C(NOCc1ccccc1)c1cccc(C[C@@H]2CCCC=C2c2nc(-c3ccccc3)c(-c3ccccc3)o2)c1` [Example 2-46, N-benzyloxy-3-{[(1S)-2-(4,5-diphenyloxazol-2-yl)-2-cyclohexen-1-yl]methyl}benzamide]: in assay [1], the inhibition at 0.1 µM was no less than 80%.
The same measure, in the same setting: in the case of `O=C(NCC(c1ccccc1)c1ccccc1)c1cccc(C[C@@H]2CCC[C@H]2c2nc(-c3ccccc3)c(-c3ccccc3)o2)c1` [Example 1-50, N-(2,2-diphenylethyl)-3-{[(1S,2R)-2-(4,5-diphenyloxazol-2-yl)-1-cyclopentyl]methyl}benzamide] it was no less than 80%.
